{"source": "patent US6603044B1", "about": "“Phthalamide derivatives, or salt thereof agrohorticultural insecticide, and method for using the same” (Nihon Nohyaku Co., Ltd., priority 1998, dated 2003)"}
{"test_system": "Diamond Back Moth (Plutella xylostella)", "test": "Insecticidal effect on diamond back moth (Test Example 1)", "assay_type": "in vivo", "conditions": "50 ppm; Chinese cabbage seedling with deposited eggs immersed about 30 seconds; 25° C.; six days after the immersion", "from_the_text": "Insecticidal Effect on Diamond Back Moth (Plutella xylostella)\nAdult diamondback moths were released and allowed to oviposit on a Chinese cabbage seedling. Two days after the release, the seedling having the eggs deposited thereon was immersed for about 30 seconds in a liquid chemical prepared by diluting a preparation containing each compound listed in Table 1, 2 or 3 as an active ingredient to adjust the concentration to 50 ppm. After air-dryness, it was allowed to stand in a room thermostatted at 25° C. Six days after the immersion, the hatched insects were counted. The mortality was calculated according to the following equation and the insecticidal effect was judged according to the criterion shown below. The test was carried out with triplicate groups of 10 insects."}
{"smiles": "CSCC(C)NC(=O)c1c(I)cccc1C(=O)Nc1ccc(OC(F)F)cc1C", "note": "(stereo not shown) [compound 4]", "Test Example 1 insecticidal effect (mortality)": "A (100)"}
{"smiles": "Cc1cc(C(F)(C(F)(F)F)C(F)(F)F)ccc1NC(=O)c1ccc(C)c(Cl)c1C(=O)NC(C)CS(C)(=O)=O", "note": "(stereo not shown) [compound 379]", "Test Example 1 insecticidal effect (mortality)": "A (100)"}
{"smiles": "Cc1cc(C(F)(C(F)(F)F)C(F)(F)F)ccc1NC(=O)c1cccc(I)c1C(=O)NC(C)CS(=O)(=O)c1nc2ccccc2s1", "note": "(stereo not shown) [compound 345]", "Test Example 1 insecticidal effect (mortality)": "A (100)"}
{"smiles": "CSCC(C)NC(=O)c1c(C(=O)Nc2ccc(C(F)(F)C(F)(F)F)cc2C)ccc2c1OCO2", "note": "(stereo not shown) [compound 158]", "Test Example 1 insecticidal effect (mortality)": "A (100)"}
{"smiles": "Cc1cc(C(F)(F)F)ccc1NC(=O)c1cccc([N+](=O)[O-])c1C(=O)NC(C)C[S+](C)[O-]", "note": "(stereo not shown) [compound 390]", "Test Example 1 insecticidal effect (mortality)": "A (100)"}
{"smiles": "CSCC(C)(C)NC(=O)c1c(C(=O)Nc2ccc(Br)cc2C)cccc1[N+](=O)[O-]", "note": "[compound 324]", "Test Example 1 insecticidal effect (mortality)": "A (100)"}
{"smiles": "CSCC(C)(C)NC(=O)c1c(C(=O)Nc2ccc(OC(F)(F)F)cc2C)cccc1[N+](=O)[O-]", "note": "[compound 322]", "Test Example 1 insecticidal effect (mortality)": "A (100)"}
{"smiles": "CSCC(C)NC(=O)c1ccc(I)cc1C(=O)Nc1ccc(OC(F)(F)F)cc1C", "note": "(stereo not shown) [compound 110]", "Test Example 1 insecticidal effect (mortality)": "A (100)"}
{"smiles": "Cc1cc(C(F)(F)C(F)(F)F)ccc1NC(=O)c1c(Cl)cccc1C(=O)NC(C)CS(C)(=O)=O", "note": "(stereo not shown) [compound 116]", "Test Example 1 insecticidal effect (mortality)": "A (100)"}
{"smiles": "Cc1cc(C(F)(F)F)ccc1NC(=O)c1cccc(Br)c1C(=O)NC(C)CS(C)(=O)=O", "note": "(stereo not shown) [compound 277]", "Test Example 1 insecticidal effect (mortality)": "A (100)"}
{"smiles": "CSCC(C)NC(=O)c1c(I)cccc1C(=O)Nc1cc2c(cc1Cl)OC(F)(F)C(F)O2", "note": "(stereo not shown) [compound 47]", "Test Example 1 insecticidal effect (mortality)": "A (100)"}
{"smiles": "CSCC(C)NC(=O)c1cccc(S(C)(=O)=O)c1C(=O)Nc1ccc(C(F)(C(F)(F)F)C(F)(F)F)cc1C", "note": "(stereo not shown) [Compound No. 192, N^1-(4-Heptafluoroisopropyl-2-methylphenyl)-N^2-(1-methyl-2-methylthioethyl)-6-methylsulfonylphthalamide]", "Test Example 1 insecticidal effect (mortality)": "A (100)"}
{"smiles": "CC[S+]([O-])CCCC(C)NC(=O)c1c(Br)cccc1C(=O)Nc1ccc(C(F)(C(F)(F)F)C(F)(F)F)cc1C", "note": "(stereo not shown) [compound 214]", "Test Example 1 insecticidal effect (mortality)": "A (100)"}
{"smiles": "CCSCC(C)NC(=O)c1c(F)cccc1C(=O)Nc1ccc(OC(F)(F)F)cc1C", "note": "(stereo not shown) [compound 27]", "Test Example 1 insecticidal effect (mortality)": "A (100)"}
{"smiles": "CCN(CC[S+](C)[O-])C(=O)c1c(F)cccc1C(=O)Nc1ccc(C(F)(C(F)(F)F)C(F)(F)F)cc1C", "note": "(stereo not shown) [2-11]", "Test Example 1 insecticidal effect (mortality)": "A (100)"}
{"smiles": "CSCC(C)(C)NC(=O)c1c(C(=O)Nc2ccc(OC(F)(F)F)cc2C)ccc2c1OC(F)(F)O2", "note": "[compound 292]", "Test Example 1 insecticidal effect (mortality)": "A (100)"}
{"smiles": "Cc1cc(C(F)(C(F)(F)F)C(F)(F)F)ccc1NC(=O)c1ccc2c(c1C(=O)NC(C)CS(C)(=O)=O)OC(F)(F)O2", "note": "(stereo not shown) [compound 289]", "Test Example 1 insecticidal effect (mortality)": "A (100)"}
{"smiles": "CSCC(CSC)NC(=O)c1c(I)cccc1C(=O)Nc1ccc(C(F)(F)C(F)(F)F)cc1C", "note": "[compound 36]", "Test Example 1 insecticidal effect (mortality)": "A (100)"}
{"smiles": "Cc1cc(OC(F)(F)F)ccc1NC(=O)c1ccc(Cl)c(Cl)c1C(=O)NC(C)CS(C)(=O)=O", "note": "(stereo not shown) [compound 194]", "Test Example 1 insecticidal effect (mortality)": "A (100)"}
{"smiles": "CCN(CSC)C(=O)c1c(Cl)cccc1C(=O)Nc1ccc(OC(F)(F)F)cc1C", "note": "[2-16]", "Test Example 1 insecticidal effect (mortality)": "A (100)"}
{"smiles": "CC[S+]([O-])CCCCC(C)NC(=O)c1c(I)cccc1C(=O)Nc1ccc(C(F)(F)C(F)(F)F)cc1C", "note": "(stereo not shown) [compound 177]", "Test Example 1 insecticidal effect (mortality)": "A (100)"}
{"smiles": "Cc1cc(C(F)(C(F)(F)F)C(F)(F)F)ccc1NC(=O)c1cccc(F)c1C(=O)N(C)CC[S+](C)[O-]", "note": "(stereo not shown) [2-9]", "Test Example 1 insecticidal effect (mortality)": "A (100)"}
{"smiles": "CSCCC(CO)NC(=O)c1c(I)cccc1C(=O)Nc1ccc(C(F)(C(F)(F)F)C(F)(F)F)cc1C", "note": "(stereo not shown) [compound 452]", "Test Example 1 insecticidal effect (mortality)": "A (100)"}
{"smiles": "CCCCCCSCC(C)NC(=O)c1c(I)cccc1C(=O)Nc1ccc(OC(F)(F)F)cc1C", "note": "(stereo not shown) [compound 77]", "Test Example 1 insecticidal effect (mortality)": "A (100)"}
{"smiles": "Cc1cc(C(F)(C(F)(F)F)C(F)(F)F)ccc1NC(=O)c1cccc(Cl)c1C(=O)NC(C)(C)C[S+](C)[O-]", "note": "(stereo not shown) [compound 172]", "Test Example 1 insecticidal effect (mortality)": "A (100)"}
{"smiles": "CSCC(C)NC(=O)c1c(F)cccc1C(=O)Nc1ccc(OC(F)F)cc1C", "note": "(stereo not shown) [compound 13]", "Test Example 1 insecticidal effect (mortality)": "A (100)"}
{"smiles": "Cc1cc(C(F)(F)C(F)(F)F)ccc1NC(=O)c1cccc([N+](=O)[O-])c1C(=O)NC(C)C[S+](C)[O-]", "note": "(stereo not shown) [compound 391]", "Test Example 1 insecticidal effect (mortality)": "A (100)"}
{"smiles": "COC(=O)CC[S+]([O-])CC(C)NC(=O)c1c(I)cccc1C(=O)Nc1ccc(C(F)(C(F)(F)F)C(F)(F)F)cc1C", "note": "(stereo not shown) [compound 342]", "Test Example 1 insecticidal effect (mortality)": "A (100)"}
{"smiles": "COC(=O)CCS(=O)(=O)CC(C)NC(=O)c1c(I)cccc1C(=O)Nc1ccc(C(F)(C(F)(F)F)C(F)(F)F)cc1C", "note": "(stereo not shown) [compound 343]", "Test Example 1 insecticidal effect (mortality)": "A (100)"}
{"smiles": "Cc1cc(C(F)(F)C(F)(F)F)ccc1NC(=O)c1cccc(Cl)c1C(=O)NC(C)CCC[S+](C)[O-]", "note": "(stereo not shown) [compound 152]", "Test Example 1 insecticidal effect (mortality)": "A (100)"}
{"smiles": "CC(C)(CS(C)(=O)=O)NC(=O)c1c(C(=O)Nc2ccc(OC(F)(F)F)cc2Cl)cccc1[N+](=O)[O-]", "note": "[compound 378]", "Test Example 1 insecticidal effect (mortality)": "A (100)"}
{"smiles": "Cc1cc(C(F)(C(F)(F)F)C(F)(F)F)ccc1NC(=O)c1cccc(I)c1C(=O)NC1(C[S+](C)[O-])CCCC1", "note": "(stereo not shown) [compound 446]", "Test Example 1 insecticidal effect (mortality)": "A (100)"}
{"smiles": "CC(C)(CS(C)(=O)=O)NC(=O)c1c(F)cccc1C(=O)Nc1ccc(OC(F)(F)F)cc1Cl", "note": "[compound 387]", "Test Example 1 insecticidal effect (mortality)": "A (100)"}
{"smiles": "COc1ccc(C(=O)Nc2ccc(C(F)(C(F)(F)F)C(F)(F)F)cc2C)c(C(=O)NC(C)CSC)c1Cl", "note": "(stereo not shown) [compound 222]", "Test Example 1 insecticidal effect (mortality)": "A (100)"}
{"smiles": "Cc1cc(C(F)(C(F)(F)F)C(F)(F)F)ccc1NC(=O)c1cccc(I)c1C(=O)N1CCSC1", "note": "[3-2]", "Test Example 1 insecticidal effect (mortality)": "A (100)"}
{"smiles": "CSCCN(C)C(=O)c1c(F)cccc1C(=O)Nc1ccc(C(F)(C(F)(F)F)C(F)(F)F)cc1C", "note": "[2-7]", "Test Example 1 insecticidal effect (mortality)": "A (100)"}
{"smiles": "CSCC(C)NC(=O)c1c(C(=O)Nc2ccc(C(F)(C(F)(F)F)C(F)(F)F)cc2C)cccc1[S+]([O-])C(F)(F)F", "note": "(stereo not shown) [compound 132]", "Test Example 1 insecticidal effect (mortality)": "A (100)"}
{"smiles": "Cc1cc(OC(F)(F)F)ccc1NC(=O)c1cccc(I)c1C(=O)NC1CCSC1", "note": "(stereo not shown) [compound 258]", "Test Example 1 insecticidal effect (mortality)": "A (100)"}
{"smiles": "CCSC(C)CNC(=O)c1cccc(I)c1C(=O)Nc1ccc(C(F)(C(F)(F)F)C(F)(F)F)cc1C", "note": "(stereo not shown) [compound 209]", "Test Example 1 insecticidal effect (mortality)": "A (100)"}
{"smiles": "C[S+]([O-])CC(C)(C)NC(=O)c1c(F)cccc1C(=O)Nc1ccc(OC(F)(F)F)cc1Cl", "note": "(stereo not shown) [compound 386]", "Test Example 1 insecticidal effect (mortality)": "A (100)"}
{"smiles": "CCSCCNC(=O)c1c(I)cccc1C(=O)Nc1ccc(OC(F)(F)F)cc1C", "note": "[compound 71]", "Test Example 1 insecticidal effect (mortality)": "A (100)"}
{"smiles": "CSCC(C)(C)NC(=O)c1ccc(OC(F)(F)F)cc1C(=O)Nc1ccc(C(F)(C(F)(F)F)C(F)(F)F)cc1C", "note": "[compound 356]", "Test Example 1 insecticidal effect (mortality)": "A (100)"}
{"smiles": "CC(CS(C)(=O)=O)NC(=O)c1c(I)cccc1C(=O)Nc1cc2c(cc1Cl)OC(F)(F)C(F)O2", "note": "(stereo not shown) [compound 103]", "Test Example 1 insecticidal effect (mortality)": "A (100)"}
{"smiles": "CSCC(C)NC(=O)c1ccccc1C(=O)Nc1ccc(C(F)(F)C(F)(F)F)cc1C", "note": "(stereo not shown) [compound 14]", "Test Example 1 insecticidal effect (mortality)": "A (100)"}
{"smiles": "CSCC(C)NC(=O)c1ccccc1C(=O)Nc1ccc(OC(F)(F)F)cc1C", "note": "(stereo not shown) [compound 15]", "Test Example 1 insecticidal effect (mortality)": "A (100)"}
{"smiles": "CCSCC(C)NC(=O)c1ccc(OC(F)(F)F)cc1C(=O)Nc1ccc(C(F)(C(F)(F)F)C(F)(F)F)cc1C", "note": "(stereo not shown) [compound 347]", "Test Example 1 insecticidal effect (mortality)": "A (100)"}
{"smiles": "CSCC(C)NC(=O)c1cc(I)ccc1C(=O)Nc1ccc(OC(F)(F)F)cc1C", "note": "(stereo not shown) [compound 107]", "Test Example 1 insecticidal effect (mortality)": "A (100)"}
{"smiles": "CC(C)CC(C)c1cc(C(F)(C(F)(F)F)C(F)(F)F)ccc1NC(=O)c1cccc(I)c1C(=O)NC(C)(C)C[S+](C)[O-]", "note": "(stereo not shown) [compound 465]", "Test Example 1 insecticidal effect (mortality)": "A (100)"}
{"smiles": "CSCC(C)NC(=O)c1c(C(=O)Nc2ccc(OC(F)(F)F)cc2C)cccc1[N+](=O)[O-]", "note": "(stereo not shown) [compound 104]", "Test Example 1 insecticidal effect (mortality)": "A (100)"}
{"smiles": "CSCCCNC(=O)c1c(I)cccc1C(=O)Nc1ccc(OC(F)(F)F)cc1C", "note": "[compound 55]", "Test Example 1 insecticidal effect (mortality)": "A (100)"}
{"smiles": "CSCC(C)(C)NC(=O)c1c(I)cccc1C(=O)Nc1ccc(C(=O)c2ccc(Cl)cc2)cc1C", "note": "[compound 469]", "Test Example 1 insecticidal effect (mortality)": "A (100)"}
{"smiles": "CCN(CC)S(=O)(=O)c1ccc(NC(=O)c2cccc(I)c2C(=O)NC(C)(C)CSC)cc1", "note": "[compound 478]", "Test Example 1 insecticidal effect (mortality)": "A (100)"}
{"smiles": "Cc1cc(OC(F)(F)F)ccc1NC(=O)c1cccc([N+](=O)[O-])c1C(=O)NC(C)C[S+](C)[O-]", "note": "(stereo not shown) [compound 389]", "Test Example 1 insecticidal effect (mortality)": "A (100)"}
{"smiles": "CCS(=O)(=O)CCC(C)NC(=O)c1c(Cl)cccc1C(=O)Nc1ccc(C(F)(C(F)(F)F)C(F)(F)F)cc1C", "note": "(stereo not shown) [compound 275]", "Test Example 1 insecticidal effect (mortality)": "A (100)"}
{"smiles": "CSCC(C)NC(=O)c1c(F)cccc1C(=O)Nc1ccc(OC(F)(F)F)cc1C", "note": "(stereo not shown) [compound 12]", "Test Example 1 insecticidal effect (mortality)": "A (100)"}
{"smiles": "CSCCNC(=O)c1cccc(I)c1C(=O)Nc1ccc(OC(F)(F)F)cc1C", "note": "[compound 51]", "Test Example 1 insecticidal effect (mortality)": "A (100)"}
{"smiles": "CCCCCCSCC(C)NC(=O)c1c(I)cccc1C(=O)Nc1ccc(C(F)(C(F)(F)F)C(F)(F)F)cc1C", "note": "(stereo not shown) [compound 78]", "Test Example 1 insecticidal effect (mortality)": "A (100)"}
{"smiles": "CSCC(C)NC(=O)c1c(I)cccc1C(=O)Nc1ccc(C(F)(F)F)cc1C", "note": "(stereo not shown) [compound 307]", "Test Example 1 insecticidal effect (mortality)": "A (100)"}
